ChEMBL document CHEMBL3739320, “Synthesis and biological evaluation of novel semi-conservative monocarbonyl analogs of curcumin as anti-inflammatory agents” (Medchemcomm, 2015)
Activity calls are given as the source filed them. The rule behind the calls is not given here.

What was measured:
RAW264.7 [1] = experiment: Antiinflammatory activity in LPS-induced mouse RAW264.7 macrophages assessed as suppression of TNF-alpha release pretreated at 10 uM for 2 hrs followed by stimulation with LPS for 22 hrs by ELISA; assay type: functional, cell-based
[2] = Cytotoxicity against human HL-7702 cells at 10 uM after 24 hrs by MTT assay; assay type: cell-based; settings: l02, 24 h
[3] = test system: Peritoneal macrophage cell; experiment: Antiinflammatory activity in LPS-induced ICR mouse peritoneal macrophages assessed as suppression of TNF-alpha release pretreated for 2 hrs followed by stimulation with LPS for 22 hrs by ELISA; assay type: functional, cell-based
RAW264.7 [4] = experiment: Antiinflammatory activity in LPS-induced mouse RAW264.7 macrophages assessed as suppression of TNF-alpha release pretreated for 2 hrs followed by stimulation with LPS for 22 hrs by ELISA; assay type: functional, cell-based
[5] = test system: Peritoneal macrophage cell; experiment: Antiinflammatory activity in LPS-induced ICR mouse peritoneal macrophages assessed as suppression of IL-6 release pretreated for 2 hrs followed by stimulation with LPS for 22 hrs by ELISA; assay type: functional, cell-based
RAW264.7 [6] = experiment: Antiinflammatory activity in LPS-induced mouse RAW264.7 macrophages assessed as suppression of IL-6 release pretreated for 2 hrs followed by stimulation with LPS for 22 hrs by ELISA; assay type: functional, cell-based
RAW264.7 [7] = experiment: Antiinflammatory activity in LPS-induced mouse RAW264.7 macrophages assessed as suppression of TNF-alpha mRNA level pretreated at 10 uM for 2 hrs followed by stimulation with LPS for 6 hrs by RT-qPCR analysis; assay type: functional, cell-based
RAW264.7 [8] = experiment: Antiinflammatory activity in LPS-induced mouse RAW264.7 macrophages assessed as suppression of IL-6 mRNA level pretreated at 10 uM for 2 hrs followed by stimulation with LPS for 6 hrs by RT-qPCR analysis; assay type: functional, cell-based
RAW264.7 [9] = experiment: Antiinflammatory activity in LPS-induced mouse RAW264.7 macrophages assessed as suppression of IL-1beta mRNA level pretreated at 10 uM for 2 hrs followed by stimulation with LPS for 6 hrs by RT-qPCR analysis; assay type: functional, cell-based
RAW264.7 [10] = experiment: Antiinflammatory activity in LPS-induced mouse RAW264.7 macrophages assessed as suppression of COX-2 mRNA level pretreated at 10 uM for 2 hrs followed by stimulation with LPS for 6 hrs by RT-qPCR analysis; assay type: functional, cell-based
[11] = Stability in phosphate buffer at pH 7.4 by UV-visible absorption analysis; assay type: physicochemical
RAW264.7 [12] = experiment: Antiinflammatory activity in LPS-induced mouse RAW264.7 macrophages assessed as suppression of TNF-alpha mRNA level pretreated for 2 hrs followed by stimulation with LPS for 6 hrs by RT-qPCR analysis; assay type: functional, cell-based
RAW264.7 [13] = experiment: Antiinflammatory activity in LPS-induced mouse RAW264.7 macrophages assessed as suppression of IL-6 mRNA level pretreated for 2 hrs followed by stimulation with LPS for 6 hrs by RT-qPCR analysis; assay type: functional, cell-based
RAW264.7 [14] = experiment: Antiinflammatory activity in LPS-induced mouse RAW264.7 macrophages assessed as suppression of IL-1beta mRNA level pretreated for 2 hrs followed by stimulation with LPS for 6 hrs by RT-qPCR analysis; assay type: functional, cell-based
RAW264.7 [15] = experiment: Antiinflammatory activity in LPS-induced mouse RAW264.7 macrophages assessed as suppression of COX-2 mRNA level pretreated for 2 hrs followed by stimulation with LPS for 6 hrs by RT-qPCR analysis; assay type: functional, cell-based
RAW264.7 [16] = experiment: Inhibition of LPS-induced IkappaB-alpha degradation in LPS-induced mouse RAW264.7 cells pretreated for 2 hrs followed by stimulation with LPS for 1 hr by Western blot analysis; assay type: cell-based
[17] = target: Transcription factor p65 (Mus musculus) (UniProt Q04207); experiment: Inhibition of NFkappaB in LPS-induced mouse RAW264.7 cells assessed as increase in P65 in cytosol pretreated for 2 hrs followed by stimulation with LPS for 1 hr by Western blot analysis; assay type: cell-based
Transcription factor p65 (Mus musculus), sequence (Q04207 whole entry): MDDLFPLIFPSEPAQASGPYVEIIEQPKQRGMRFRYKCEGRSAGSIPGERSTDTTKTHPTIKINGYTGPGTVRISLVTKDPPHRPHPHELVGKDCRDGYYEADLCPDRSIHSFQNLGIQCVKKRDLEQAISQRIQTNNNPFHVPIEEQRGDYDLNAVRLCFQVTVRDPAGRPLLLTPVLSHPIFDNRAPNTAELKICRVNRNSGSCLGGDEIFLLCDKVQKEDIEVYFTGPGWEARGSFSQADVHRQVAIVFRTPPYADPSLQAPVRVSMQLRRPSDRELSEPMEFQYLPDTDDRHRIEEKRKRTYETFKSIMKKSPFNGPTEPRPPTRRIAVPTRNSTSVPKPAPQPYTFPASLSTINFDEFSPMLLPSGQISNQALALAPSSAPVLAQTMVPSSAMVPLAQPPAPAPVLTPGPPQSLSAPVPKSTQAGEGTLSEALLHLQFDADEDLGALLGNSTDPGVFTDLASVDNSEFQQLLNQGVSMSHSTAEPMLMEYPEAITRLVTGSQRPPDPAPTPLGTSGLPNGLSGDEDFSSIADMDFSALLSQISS

[18] = target: Transcription factor p65 (Mus musculus) (UniProt Q04207); experiment: Inhibition of NFkappaB in LPS-induced mouse RAW264.7 cells assessed as decrease in P65 in nucleus pretreated for 2 hrs followed by stimulation with LPS for 1 hr by Western blot analysis; assay type: cell-based
RAW264.7 [19] = experiment: Inhibition of NFkappaB in LPS-induced mouse RAW264.7 cells assessed as suppression of binding of NF-kappabeta with DNA in nucleus pretreated for 2 hrs followed by stimulation with LPS for 1 hr by EMSA; assay type: cell-based
Mus musculus = experiment: Antiinflammatory activity in LPS-induced C57BL/6 mouse assessed as survival rate pretreated at 10 mg/kg, iv for 15 mins followed by LPS stimulation measured for 7 days; assay type: functional; settings: C57BL/6, iv

COc1cc(/C=C/C(=O)/C=C/c2cc(Br)ccc2Br)ccc1O
inhibition (RAW264.7 [1]): Active | Activity [2]: Non-toxic

COc1cc(/C=C/C(=O)/C=C/c2ccc3ccccc3c2)ccc1O
Activity [2]: Non-toxic

C=CCOc1ccc(/C=C/C(=O)/C=C/c2ccc(O)c(OC)c2)cc1
Activity [2]: Non-toxic

COc1cc(/C=C/C(=O)/C=C/c2ccc3c(c2)CCN3)ccc1O
Activity [2]: Non-toxic

COc1cc(/C=C/C(=O)/C=C/c2ccc(Br)cc2)ccc1O
Activity [2]: Non-toxic

COc1cc(/C=C/C(=O)/C=C/c2ccc(OC(C)=O)cc2)ccc1O
Activity [2]: Non-toxic

COc1cc(/C=C/C(=O)/C=C/c2c(F)cccc2Br)ccc1O
Activity [2]: Non-toxic

COc1cc(/C=C/C(=O)/C=C/c2ccc(Br)c(F)c2)ccc1O
Activity [2]: Non-toxic

COc1cc(/C=C/C(=O)/C=C/c2cccc(Br)c2)ccc1O
inhibition (RAW264.7 [1]): Active | Activity [2]: Non-toxic

COc1cc(/C=C/C(=O)/C=C/c2ccccc2Cl)ccc1O
Activity [2]: Non-toxic

COc1cc(/C=C/C(=O)/C=C/c2cc([N+](=O)[O-])ccc2F)ccc1O
Activity [2]: Non-toxic

COc1ccc(F)c(/C=C/C(=O)/C=C/c2ccc(O)c(OC)c2)c1
Activity [2]: Non-toxic

COc1cc(/C=C/C(=O)/C=C/c2ccc(OC)c(Br)c2)ccc1O
inhibition [3]: Dose-dependent effect | inhibition (RAW264.7 [1]): Active | Activity [2]: Non-toxic | inhibition (RAW264.7 [4]): Dose-dependent effect | inhibition [5]: Dose-dependent effect | inhibition (RAW264.7 [6]): Dose-dependent effect | inhibition (RAW264.7 [7]): Active | inhibition (RAW264.7 [8]): Active | inhibition (RAW264.7 [9]): Active | inhibition (RAW264.7 [10]): Active

COc1cc(/C=C/C(=O)/C=C/c2cc(F)ccc2Br)ccc1O
inhibition (RAW264.7 [1]): Active | Activity [2]: Non-toxic

COc1cc(/C=C/C(=O)/C=C/c2cccc(O)c2)ccc1O
inhibition (RAW264.7 [1]): Active | Activity [2]: Non-toxic

COc1cc(/C=C/C(=O)/C=C/c2ccccc2Br)ccc1O
Activity [2]: Non-toxic

COc1cc(/C=C/C(=O)/C=C/c2ccc(OC)c(OC)c2OC)ccc1O
inhibition [3]: Dose-dependent effect | inhibition (RAW264.7 [1]): Active | Activity [2]: Non-toxic | inhibition (RAW264.7 [4]): Dose-dependent effect | inhibition [5]: Dose-dependent effect | inhibition (RAW264.7 [6]): Dose-dependent effect | inhibition (RAW264.7 [7]): Active | inhibition (RAW264.7 [8]): Active | inhibition (RAW264.7 [9]): Active | inhibition (RAW264.7 [10]): Active | Stability [11]: Stable

COc1cc(/C=C/C(=O)/C=C/c2ccccc2C(F)(F)F)ccc1O
inhibition (RAW264.7 [1]): Active | Activity [2]: Non-toxic

COc1cc(/C=C/C(=O)/C=C/c2ccc(C(F)(F)F)cc2)ccc1O
inhibition (RAW264.7 [1]): Active | Activity [2]: Non-toxic

COc1cc(/C=C/C(=O)/C=C/c2ccc([N+](=O)[O-])cc2[N+](=O)[O-])ccc1O
Activity [2]: Non-toxic

COc1cc(/C=C/C(=O)/C=C/c2cc(F)ccc2F)ccc1O
inhibition (RAW264.7 [1]): Active | Activity [2]: Non-toxic

COc1cc(/C=C/C(=O)/C=C/c2ccc(O)cc2Br)ccc1O
inhibition (RAW264.7 [1]): Active | Activity [2]: Non-toxic

COc1ccc(Br)c(/C=C/C(=O)/C=C/c2ccc(O)c(OC)c2)c1
inhibition (RAW264.7 [1]): Active | Activity [2]: Non-toxic

COc1ccc(/C=C/C(=O)/C=C/c2ccc(O)c(OC)c2)c(F)c1
inhibition [3]: Dose-dependent effect | inhibition (RAW264.7 [1]): Active | Activity [2]: Non-toxic | inhibition (RAW264.7 [4]): Dose-dependent effect | inhibition [5]: Dose-dependent effect | inhibition (RAW264.7 [6]): Dose-dependent effect | inhibition (RAW264.7 [7]): Active | inhibition (RAW264.7 [8]): Active | inhibition (RAW264.7 [9]): Active | inhibition (RAW264.7 [10]): Active

COc1cc(/C=C/C(=O)/C=C/c2cc3c(cc2Br)OCO3)ccc1O
inhibition [3]: Dose-dependent effect | inhibition (RAW264.7 [1]): Active | Activity [2]: Non-toxic | inhibition (RAW264.7 [4]): Dose-dependent effect | inhibition [5]: Dose-dependent effect | inhibition (RAW264.7 [6]): Dose-dependent effect | inhibition (RAW264.7 [7]): Active | inhibition (RAW264.7 [8]): Active | inhibition (RAW264.7 [9]): Active | inhibition (RAW264.7 [10]): Active

COc1cc(/C=C/C(=O)/C=C/c2cccc(C(F)(F)F)c2F)ccc1O
inhibition (RAW264.7 [1]): Active | Activity [2]: Non-toxic

COc1cc(/C=C/C(=O)CC(=O)/C=C/c2ccc(O)c(OC)c2)ccc1O [CURCUMIN]
inhibition (RAW264.7 [1]): Active | Activity [2]: Non-toxic

COc1cc(/C=C/C(=O)/C=C/c2ccc(C(C)C)cc2)ccc1O
inhibition (RAW264.7 [1]): Active | Activity [2]: Non-toxic

COc1cc(/C=C/C(=O)/C=C/c2ccccc2[N+](=O)[O-])ccc1O
inhibition [3]: Dose-dependent effect | inhibition (RAW264.7 [1]): Active | Activity [2]: Non-toxic | inhibition (RAW264.7 [4]): Dose-dependent effect | inhibition [5]: Dose-dependent effect | inhibition (RAW264.7 [6]): Dose-dependent effect | inhibition (RAW264.7 [7]): Active | inhibition (RAW264.7 [8]): Active | inhibition (RAW264.7 [9]): Active | inhibition (RAW264.7 [10]): Active | inhibition (RAW264.7 [12]): Dose-dependent effect | inhibition (RAW264.7 [13]): Dose-dependent effect | inhibition (RAW264.7 [14]): Dose-dependent effect | inhibition (RAW264.7 [15]): Dose-dependent effect | Stability [11]: Stable | Activity (RAW264.7 [16]): Dose-dependent effect | Activity [17]: Active | Activity [18]: Active | inhibition (RAW264.7 [19]): Active | survival at 10 mg/kg (Mus musculus): 55%

COc1cc(/C=C/C(=O)/C=C/c2ccc(C(F)(F)F)cc2C(F)(F)F)ccc1O
inhibition (RAW264.7 [1]): Active | Activity [2]: Non-toxic

COc1cc(/C=C/C(=O)/C=C/c2c(C)cc(C)cc2C)ccc1O
inhibition [3]: Dose-dependent effect | inhibition (RAW264.7 [1]): Active | Activity [2]: Non-toxic | inhibition (RAW264.7 [4]): Dose-dependent effect | inhibition [5]: Dose-dependent effect | inhibition (RAW264.7 [6]): Dose-dependent effect | inhibition (RAW264.7 [7]): Active | inhibition (RAW264.7 [8]): Active | inhibition (RAW264.7 [9]): Active | inhibition (RAW264.7 [10]): Active

COc1cc(/C=C/C(=O)/C=C/c2cccc(Cl)c2Cl)ccc1O
inhibition (RAW264.7 [1]): Active | Activity [2]: Non-toxic
